Several values for one entry are separate records, joined by “and”; a condition that tells them apart may be missing. Equal entries are not always repeated.
How the values were obtained:
[1] = test system: MDAMB231 cells; experiment: Crystal violet (CV) proliferation assay, MDAMB231; type: cell-based; details: MDAMB231 (PKCß1 high, Rb positive), 2000 cells
Method: (§1) Cell proliferation rates were determined using crystal violet assays. […] Cells were fixed with 25% glutaraldehyde for 10 minutes with shaking, washed 5 times with distilled water, stained with a 1% crystal violet solution (solubilized in 25% methanol) for 10 minutes, washed again 5 times and allowed to dry. De-staining was performed using […] sodium citrate in 50% ethanol followed by quantification using a 96 well spectrophotometer set at an absorbance of 550 nm.

[2] = test system: ER-stress induced UPR pathway; experiment: Western blot of UPR pathway proteins in MDA-MB-231 cells; type: cell-based; details: 1 μM
Method: Triple negative breast cancer MDA-MB-231 cells were cultured in phenol-red free DMEM/F12 medium supplemented with 10% FBS and 1% AA. Cells were plated at 1×10^6 cells per 10 cm dish. The next day, the cells were treated with DMSO, 1 μM Pr-7 or 1 μM ENDX for 1, 8, 24, and 48 hours, and were then processed for RNA and RIPA protein analysis.
For western blotting, 30 μg of protein lysates were run on Criterion precast 10% Bis-Tris gel, transferred to PVDF membrane, incubated in TBST-5% milk for one hour followed by overnight incubation with phospho-IRE1α (Sigma SAB5700519, rabbit, 1:1000), IRE1α (CS3294, rabbit, 1:1000), phospho-eIF2α (CS3398, rabbit, 1:1000), eIF2α (CS5324, rabbit, 1:1000), CHOP (CS2895, mouse, 1:1000), PUMA (SC374223, mouse, 1:200), NOXA (CS14766, rabbit, 1:1000), E2F1 (SC251, mouse, 1:250), BCL2 (SC7382, 1:200), cleaved PARP (CS5625, rabbit, 1:1000), PARP (CS9542, rabbit, 1:1000), PKCβ1 (SC8049, mouse, 1:200), PKCδ (CS2058, rabbit, 1:1000) and Actin (Sigma A2228, mouse, 1:10,000) primary antibodies in TBST-5% BSA solution. Membranes were washed in TBS-T, incubated for one-hour in HRP-linked anti-rabbit or anti-mouse secondary antibodies in TBST-5% milk, and washed with TBS-T. Bands were developed using west-pico or west-femto chemiluminescent substrate reagents.

[3] = Pharmacokinetics in mice, plasma by UPLC-MS/MS; type: in vivo, female CD1 mice; details: for Concentration ENDX PROTAC 7: mouse plasma
Method: ENDX PROTAC 7 and PROTAC 9 pharmacokinetics were characterized in female CD1 mice. Blood samples were collected from mice anesthetized under isoflurane via retro-orbital eye bleed into tubes containing EDTA and immediately chilled on ice. NaF was added to the EDTA collection tubes to help stabilize the drug in whole blood for the second IV and IP studies with ENDX PROTAC 9, and for the IV and oral studies with PROTAC 7. Plasma and red blood cells were separated immediately by centrifugation in a refrigerated centrifuge at 4° C. The plasma was transferred to a separate tube and immediately frozen at −20° C.
For IV dosing, ENDX PROTAC 9 was dissolved in 10% DMSO, 10% PEG 400, and 80% normal saline for a final concentration of 0.2 mg/mL ENDX PROTAC 9 for the 1 mg/kg IV doses. ENDX PROAC 7 was dissolved in 15% DMSO, 9.44% PEG400, and […] normal saline for a final concentration of 0.19 mg/mL for the 1 mg/kg IV doses. Blood samples (3 mice per time-point) were collected 5 minutes, 15 minutes, 0.5 hour, 1 hour, 2 hours, 4 hours, 8 hours, and 24 hours after administration of the ENDX PROTAC. A second IV study was performed for ENDX PROTAC 9 in which blood samples (3 mice per time-point) were collected 5 minutes, 15 minutes, 1 hour, and 2 hours after administration of ENDX PROTAC 9. For oral dosing, ENDX PROTAC 9 (10 mg/kg) and ENDX PROTAC 7 (10 mg/kg) were suspended in 1 mM ascorbic acid:PEG400, 1:1 v/v for a final concentration of 1.0 mg/mL ENDX PROTAC. Blood samples (three mice per time-point) were collected 15 minutes, 0.5 hour, 1 hour, 2 hours, 4 hours, 6 hours, 8 hours, and 24 hours after administering the ENDX PROTAC. For LP. dosing, ENDX PROTAC 9 (4 mg/kg) was prepared in 1 mM ascorbic acid:PEG400, 1:1 v/v for a final concentration of 0.4 mg/mL ENDX PROTAC 9. Blood samples (three mice per time-point) were collected 15 minutes, 0.5 hour, 1 hour, 2 hours, 4 hours, 6 hours, 8 hours, and 24 hours after administration. Plasma concentrations of ENDX PROTAC 7 and 9 were measured using UPLC-MS/MS.

[4] = test system: MDAMB436 cells; experiment: Crystal violet (CV) proliferation assay, MDAMB436; type: cell-based; details: MDAMB436 (PKCß1 low, Rb negative), 2000 cells
Method: as §1

[5] = biological target: T1, PKCβ1 (Homo sapiens, UniProt P05771); experiment: Western blot, PKCβ1 expression in MCF7AC1 cells; type: cell-based; details: 1 μM, within 72 hours, drugs replenished every 24 hours
T1 construct: western blots showing expression of PKCβ1 in MCF7AC1 cells treated with 1 μM concentration of the ENDX-PROTACs or ENDX; endogenous in cells; host or cells: MCF7AC1 (ER+ breast cancer cells)
T1 sequence (P05771 whole entry): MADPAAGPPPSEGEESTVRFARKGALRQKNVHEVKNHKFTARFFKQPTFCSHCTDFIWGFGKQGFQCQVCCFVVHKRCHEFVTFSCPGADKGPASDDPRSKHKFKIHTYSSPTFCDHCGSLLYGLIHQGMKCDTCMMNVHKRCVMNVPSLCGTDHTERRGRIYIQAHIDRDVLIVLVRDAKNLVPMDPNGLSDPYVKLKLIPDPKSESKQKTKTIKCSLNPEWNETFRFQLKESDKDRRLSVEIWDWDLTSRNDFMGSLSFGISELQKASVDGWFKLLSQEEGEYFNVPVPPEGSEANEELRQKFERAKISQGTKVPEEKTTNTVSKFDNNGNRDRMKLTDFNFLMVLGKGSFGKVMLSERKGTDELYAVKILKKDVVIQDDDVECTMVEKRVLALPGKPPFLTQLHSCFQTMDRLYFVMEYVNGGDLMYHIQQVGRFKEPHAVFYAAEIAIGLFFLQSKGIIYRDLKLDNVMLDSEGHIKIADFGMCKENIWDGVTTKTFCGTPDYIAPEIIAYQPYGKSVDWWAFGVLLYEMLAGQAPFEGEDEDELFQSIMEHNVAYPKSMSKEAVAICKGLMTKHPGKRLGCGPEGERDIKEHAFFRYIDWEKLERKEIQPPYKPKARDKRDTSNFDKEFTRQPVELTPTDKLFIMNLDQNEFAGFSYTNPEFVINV
Method: For western blotting analysis, cells were treated with vehicle (DMSO) or 1 μM of the indicated ENDX-PROTAC's or parent drug ENDX for 24, 48 and 72 hours with the drugs replenished every 24 hours. 25 μg of protein lysates were run on 10% Bis-Tris XT Criterion precast SDS-PAGE gels and transferred on to PVDF membrane. Following blocking with TB ST-5% milk, the membranes were probed with primary antibodies (1:500 — 1:2000 dilutions) for PKCβ1 (Abcam #136917), ERα (SC #8002), E2F1 (SC #251) and Actin (CS#8457) in TBST-5% BSA and secondary antibodies (1:2000 dilution) in TBST-5% milk. Membranes were developed using chemiluminescent WestPico or WestFemto detection solutions on the Li-Cor Imaging system.

[6] = test system: BT549 cells; experiment: Crystal violet (CV) proliferation assay, BT549; type: cell-based; details: BT549 (PKCß1 high, Rb negative), 2000 cells
Method: as §1

[7] = mice, oral 10 mg/kg, NaF in tubes

## CC/C(=C(\c1ccc(O)cc1)c1ccc(OCCN(C)C(=O)COCCNC(=O)Cc2ccc3c(c2)CN(C2CCC(=O)NC2=O)C3=O)cc1)c1ccccc1 (stereo not shown) [TC-Pr-007]
[1]
  IC50: 87 nM
[2]
  E2F1 expression: downregulation
  E2F7 activation: activated E2F7
  PARP cleavage: increased PARP cleavage
  expression of anti-apoptotic protein BCL2: downregulated
[2]; 1-48 hours
  activation of ER-stress induced UPR pathway: robustly activated multiple components
[3]; IV (1 mg/kg), 15 minutes, listed as ENDX PROTAC 7, 1 mg/kg
  Concentration ENDX PROTAC 7: 37.27 ng/mL and 57.95 ng/mL and 30.96 ng/mL
[3]; IV (1 mg/kg), 30 minutes, listed as ENDX PROTAC 7, 1 mg/kg
  Concentration ENDX PROTAC 7: 10.89 ng/mL and 19.85 ng/mL and 16.62 ng/mL
[3]; IV (1 mg/kg), 120 minutes, listed as ENDX PROTAC 7, 1 mg/kg
  Concentration ENDX PROTAC 7: 8.35 ng/mL and 9.53 ng/mL and 8.69 ng/mL
[3]; PO (10 mg/kg), 15 minutes, listed as ENDX PROTAC 7, 10 mg/kg
  Concentration ENDX PROTAC 7: 0.75 ng/mL and 0.7 ng/mL and 0.93 ng/mL
[3]; PO (10 mg/kg), 30 minutes, listed as ENDX PROTAC 7, 10 mg/kg
  Concentration ENDX PROTAC 7: 0.64 ng/mL and 0.81 ng/mL and 0.83 ng/mL
[3]; PO (10 mg/kg), 360 minutes, listed as ENDX PROTAC 7, 10 mg/kg
  Concentration ENDX PROTAC 7: 0.53 ng/mL and 0.4 ng/mL and 0.44 ng/mL
[3]; PO (10 mg/kg), 480 minutes, listed as ENDX PROTAC 7, 10 mg/kg
  Concentration ENDX PROTAC 7: 0.69 ng/mL and 0.37 ng/mL and 0.4 ng/mL
[3]; mice, I.V. 1 mg/kg, NaF in tubes
  elimination half-life: 5 h
[3]; mice, IV 1 mg/kg, NaF in tubes
  peak plasma concentration: 129.7 ng/mL
  time of peak plasma concentration: ≤ 5 min
[3]; mice, oral 10 mg/kg vs IV 1 mg/kg, NaF in tubes
  Oral bioavailability: 0.85%
[3]; [7]
  peak plasma concentration: 1.24 ng/mL
  time of peak plasma concentration: ≤ 60 min
[4]
  IC50: 40 nM
[5]
  PKCβ1 polypeptide degradation: rapidly degraded PKCβ1 polypeptides
[6]
  IC50: 43 nM
